Patent publication US12582641B2, “Sulfur-containing compound based on glutarimide skeleton and application thereof” (SHANGHAITECH UNIVERSITY, priority 2019, dated 2026)

System: MM.1S cells
Assay: Proliferation inhibition (IC50) in MM.1S cells, cell viability assay
Conditions: Homo sapiens, MM1.S, 72 h, read-out: IC50 (nM), proliferation inhibitory activity of MM.1S cells (half inhibitory concentration)
Description: MM.1S (B lymphoblast) was purchased from ATCC. Complete medium was RPMI1640 supplemented with 10% FBS and 1% Penicillin-Streptomycin. The cells used were identified as correct cells by STR cells, and were negative for mycoplasma through routine inspections.
IC50 values of the compounds of the present disclosure were measured using Cell Titer Blue, Cell Titer GLO, or WST reagent from Promega Company. Assay details are as follows: Cells were seeded in 100 μL RPMI1640 complete medium containing serum at a density of 15,000 cells/well. After 24 h, the inoculated cells were treated with diluted commercial inhibitor and the compounds of the present disclosure to be tested after serial dilution. After the cells were treated with the compounds of the present disclosure to be tested for 72 h, cell viability was determined after adding the cell viability detection kit listed above according to the reagent operating instructions. The negative control was DMSO, and the positive control was a commercial inhibitor, both of which were used to treat the cells through the same method as that of the compounds of the present disclosure. The growth inhibition of the compounds of the present disclosure on cells was plotted by Prism Graphpad software, and the IC50 values of the compounds of the present disclosure were calculated therefrom.
We tested the activities of the compounds of the present invention in MM.1S cell (which overexpressed IKZF1/3 and is highly sensitive to immunomodulatory drugs) through a dose-dependent manner. The cells were treated with the compounds of the present invention at 10 different successively decreasing concentrations (starting at the highest concentration of 10 μM; 5-fold serial dilutions) for 72 h, and then the cell viability determination was performed in accordance with CCK-8 reagent operating instructions. The experiment was repeated more than three times.

IC50 | SMILES
287 nM | CN1C(=O)CCC(N2Cc3c(SCc4ccc(CN5CCCCC5)cc4)cccc3C2=O)C1=O (stereo not shown) [SIAIS1224101, 1-methyl-3-(1-oxo-4-((4-(piperidin-1-ylmethyl)benzyl)thio)isoindolin-2-yl)piperidine-2,6-dione]
4.73 nM | O=C1CCC(N2Cc3c(SCCCCCCCCC[S+]([O-])CCCC(F)(F)C(F)(F)F)cccc3C2=O)C(=O)N1 (stereo not shown) [SIAIS1220145, 3-(1-oxo-4-((9-((4,4,5,5,5-pentafluoropentyl)sulfinyl)nonyl)thio)isoindolin-2-yl)piperidine-2,6-dione]
0.047 ± 0.001 nM | CC1CC(C)CN(CCCCCCCSc2cccc3c2CN(C2CCC(=O)NC2=O)C3=O)C1 (stereo not shown) [SIAIS1221021, 3-(4-((7-(3,5-dimethylpiperidin-1-yl)heptyl)thio)-1-oxoisoindolin-2-yl)piperidine-2,6-dione]
0.039 nM | O=C1CCC(N2Cc3c(SCc4ccc(CNC(C5CC5)C5CC5)cc4)cccc3C2=O)C(=O)N1 (stereo not shown) [SIAIS1227183, 3-(4-((4-(((dicyclopropylmethyl)amino)methyl)benzyl)thio)-1-oxoisoindolin-2-yl)piperidine-2,6-dione]
0.598 nM | O=C1CCC(N2Cc3c(SCCCCCCCNc4ccccc4)cccc3C2=O)C(=O)N1 (stereo not shown) [SIAIS1220187, 3-(1-oxo-4-((7-(phenylamino)heptyl)thio)isoindolin-2-yl)piperidine-2,6-dione]
0.693 nM | O=C1CCC(N2Cc3c(SCCCNC45CC6CC(CC(C6)C4)C5)cccc3C2=O)C(=O)N1 (stereo not shown) [SIAIS1222177, 3-(4-((3-(adamantan-1-ylamino)propyl)thio)-1-oxoisoindolin-2-yl)piperidine-2,6-dione]
0.34 nM | O=C1CCC(N2Cc3c(SCCCCCCCCNc4ncnc5ccccc45)cccc3C2=O)C(=O)N1 (stereo not shown) [SIAIS264011, 3-(1-oxo-4-((8-(quinazolin-4-ylamino)octyl)thio)isoindolin-2-yl)piperidine-2,6-dione]
7.55 ± 1.89 nM | O=C1CCC(N2Cc3c(SCc4csc(CNC5CCCC5)n4)cccc3C2=O)C(=O)N1 (stereo not shown) [SIAIS313166, 3-(4-(((2-((cyclopentylamino)methyl)thiazol-4-yl)methyl)thio)-1-oxoisoindolin-2-yl)piperidine-2,6-dione]
0.49 ± 0.05 nM | CCN(CC)CCCCCCCCCCSc1cccc2c1CN(C1CCC(=O)NC1=O)C2=O (stereo not shown) [SIAIS1220025, 3-(4-((10-(diethylamino)decyl)thio)-1-oxoisoindolin-2-yl)piperidine-2,6-dione]
0.053 nM | O=C1CCC(N2Cc3c(SCCCCCCCNC45CC(C4)C5)cccc3C2=O)C(=O)N1 (stereo not shown) [SIAIS1222123, 3-(4-((7-(bicyclo[1.1.1]pentan-1-ylamino)heptyl)thio)-1-oxoisoindolin-2-yl)piperidine-2,6-dione]
0.072 ± 0.004 nM | O=C1CCC(N2Cc3c(SCc4ccc(CNC5CCCCC5)cc4)cccc3C2=O)C(=O)N1 (stereo not shown) [SIAIS1221071, 3-(4-((4-((cyclohexylamino)methyl)benzyl)thio)-1-oxoisoindolin-2-yl)piperidine-2,6-dione]
0.553 nM | CN(CCCCCCCSc1cccc2c1CN(C1CCC(=O)NC1=O)C2=O)c1ccccc1 (stereo not shown) [SIAIS1220189, 3-(4-((7-(methyl(phenyl)amino)heptyl)thio)-1-oxoisoindolin-2-yl)piperidine-2,6-dione]
2.12 nM | O=C1CCC(N2C(=O)c3cccc(SCCCCCCNCC45CC6CC(CC(C6)C4)C5)c3C2=O)C(=O)N1 (stereo not shown) [SIAIS1222071, 4-((6-(((adamantan-1-yl)methyl)amino)hexyl)thio)-2-(2,6-dioxopiperidin-3-yl)isoindoline-1,3-dione]
0.041 ± 0.018 nM | O=C1CCC(N2Cc3c(SCCCCCCNC45CC6CC(CC(C6)C4)C5)cccc3C2=O)C(=O)N1 (stereo not shown) [SIAIS1220177, 3-(4-((6-((adamantan-1-yl)amino)hexyl)thio)-1-oxoisoindolin-2-yl)piperidine-2,6-dione]
0.037 nM | O=C1CCC(N2Cc3c(SCCCCCCCN[C@H]4C[C@H]5CC[C@@H]4C5)cccc3C2=O)C(=O)N1 (stereo partly drawn) [SIAIS1228059, 3-(4-((7-(((1R,2S,4S)-bicyclo[2.2.1]heptan-2-yl)amino)heptyl)thio)-1-oxoisoindolin-2-yl)piperidine-2,6-dione]
0.046 nM | O=C1CCC(N2Cc3c(SCCCCCCCN4CCC5(CC4)CC5)cccc3C2=O)C(=O)N1 (stereo not shown) [SIAIS1222195, 3-(4-((7-(6-azaspiro[2.5]octan-6-yl)heptyl)thio)-1-oxoisoindolin-2-yl)piperidine-2,6-dione]
0.02 nM | O=C1CCC(N2Cc3c(SCc4ccc(CCN5CCCCCCC5)cc4)cccc3C2=O)C(=O)N1 (stereo not shown) [SIAIS1227159, 3-(4-((4-(2-(azocan-1-yl)ethyl)benzyl)thio)-1-oxoisoindolin-2-yl)piperidine-2,6-dione]
0.135 nM | CC(C)(C)NCCCCCCCSc1cccc2c1CN(C1CCC(=O)NC1=O)C2=O (stereo not shown) [SIAIS1222079, 3-(4-((7-(tert-butylamino)heptyl)thio)-1-oxoisoindolin-2-yl)piperidine-2,6-dione]
0.33 ± 0.15 nM | CNCCCCCCCCSc1cccc2c1CN(C1CCC(=O)NC1=O)C2=O (stereo not shown) [SIAIS1216151, 3-(4-((8-(methylamino)octyl)thio)-1-oxoisoindolin-2-yl)piperidine-2,6-dione]

IC50 | SMILES
9.71 nM | O=C1CCC(N2Cc3c(SCCCCCCCCCSCCCC(F)(F)C(F)(F)F)cccc3C2=O)C(=O)N1 (stereo not shown) [SIAIS1220131, 3-(1-oxo-4-((9-((4,4,5,5,5-pentafluoropentyl)thio)nonyl)thio)isoindolin-2-yl)piperidine-2,6-dione]
2.1 ± 0.67 nM | CCCCCCCCSc1cccc2c1CN(C1CCC(=O)NC1=O)C2=O (stereo not shown) [SIAIS1216025, 3-(4-(octylthio)-1-oxoisoindolin-2-yl)piperidine-2,6-dione]
0.048 nM | O=C1CCC(N2Cc3c(SCc4ccc(CNCC5CCCCO5)cc4)cccc3C2=O)C(=O)N1 (stereo not shown) [SIAIS1224019, 3-(1-oxo-4-((4-((((tetrahydro-2H-pyran-2-yl)methyl)amino)methyl)benzyl)thio)isoindolin-2-yl)piperidine-2,6-dione]
1.3 ± 0.96 nM | O=C1CCC(N2Cc3c(SCc4ccc(CNCC5CCCCO5)o4)cccc3C2=O)C(=O)N1 (stereo not shown) [SIAIS313149, 3-(1-oxo-4-(((5-((((tetrahydro-2H-pyran-2-yl)methyl)amino)methyl)furan-2-yl)methyl)thio)isoindolin-2-yl)piperidine-2,6-dione]
0.027 nM | CC1(C)[C@@H]2CC[C@@]1(C)[C@@H](NCCCCCSc1cccc3c1CN(C1CCC(=O)NC1=O)C3=O)C2 (stereo partly drawn) [SIAIS1221113, 3-(1-oxo-4-((5-(((1R,2S,4R)-1,7,7-trimethylbicyclo[2.2.1]heptan-2-yl)amino)pentyl)thio)isoindolin-2-yl)piperidine-2,6-dione]
2.25 nM | O=C1CCC(N2Cc3c(SCCCO)cccc3C2=O)C(=O)N1 (stereo not shown) [SIAIS1216189, 3-(4-((3-hydroxypropyl)thio)-1-oxoisoindolin-2-yl)piperidine-2,6-dione]
3.79 nM | Cc1ccc(NC(=O)NCCSc2cccc3c2CN(C2CCC(=O)NC2=O)C3=O)cc1Cl (stereo not shown) [SIAIS269012, 1-(3-chloro-4-methylphenyl)-3-(2-((2-(2,6-dioxopiperidin-3-yl)-1-oxoisoindolin-4-yl)thio)ethyl)urea]
2.51 ± 0.54 nM | O=C1CCC(N2Cc3c(SCc4nc(CN5CCSCC5)cs4)cccc3C2=O)C(=O)N1 (stereo not shown) [SIAIS355001, 3-(1-oxo-4-(((4-(thiomorpholinomethyl)thiazol-2-yl)methyl)thio)isoindolin-2-yl)piperidine-2,6-dione]
0.89 ± 0.22 nM | O=C1CCC(N2Cc3c(SCc4cccc(CN5CCCCC5)c4)cccc3C2=O)C(=O)N1 (stereo not shown) [SIAIS1227131, 3-(1-oxo-4-((3-(piperidin-1-ylmethyl)benzyl)thio)isoindolin-2-yl)piperidine-2,6-dione]
1.04 ± 0.49 nM | O=C1CCC(N2Cc3c(SCc4cccc(CN5CCOCC5)c4)cccc3C2=O)C(=O)N1 (stereo not shown) [SIAIS1227137, 3-(4-((3-(morpholinomethyl)benzyl)thio)-1-oxoisoindolin-2-yl)piperidine-2,6-dione]
0.079 nM | O=C1CCC(N2Cc3c(SCc4ccc(CCCN5CCOCC5)cc4)cccc3C2=O)C(=O)N1 (stereo not shown) [SIAIS1227053, 3-(4-((4-(3-morpholinopropyl)benzyl)thio)-1-oxoisoindolin-2-yl)piperidine-2,6-dione]
0.035 nM | CN(CCCCCCCSc1cccc2c1CN(C1CCC(=O)NC1=O)C2=O)C1CCC(C)(C)CC1 (stereo not shown) [SIAIS1221125, 3-(4-((7-((4,4-dimethylcyclohexyl)(methyl)amino)heptyl)thio)-1-oxoisoindolin-2-yl)piperidine-2,6-dione]
2.78 ± 0.73 nM | O=C1CCC(N2Cc3c(SCc4csc(CN5CCCCC5)n4)cccc3C2=O)C(=O)N1 (stereo not shown) [SIAIS313164, 3-(1-oxo-4-(((2-(piperidin-1-ylmethyl)thiazol-4-yl)methyl)thio)isoindolin-2-yl)piperidine-2,6-dione]
1.34 ± 0.32 nM | O=C1CCC(N2Cc3c(SCc4nc(CN5CCCCCC5)cs4)cccc3C2=O)C(=O)N1 (stereo not shown) [SIAIS313171, 3-(4-(((4-(azepan-1-ylmethyl)thiazol-2-yl)methyl)thio)-1-oxoisoindolin-2-yl)piperidine-2,6-dione]
0.044 ± 0.003 nM | O=C1CCC(N2Cc3c(SCCCCCCCNCC45CC6CC(CC(C6)C4)C5)cccc3C2=O)C(=O)N1 (stereo not shown) [SIAIS1220171, 3-(4-((7-(((adamantan-1-yl)methyl)amino)heptyl)thio)-1-oxoisoindolin-2-yl)piperidine-2,6-dione]
0.95 ± 0.45 nM | O=C1CCC(N2Cc3c(SCc4ccc(CNC5CCCC5)o4)cccc3C2=O)C(=O)N1 (stereo not shown) [SIAIS313148, 3-(4-(((5-((cyclopentylamino)methyl)furan-2-yl)methyl)thio)-1-oxoisoindolin-2-yl)piperidine-2,6-dione]
2.56 ± 0.56 nM | O=C1CCC(N2Cc3c(SCc4nc(CN5CCCCC5)cs4)cccc3C2=O)C(=O)N1 (stereo not shown) [SIAIS313170, 3-(1-oxo-4-(((4-(piperidin-1-ylmethyl)thiazol-2-yl)methyl)thio)isoindolin-2-yl)piperidine-2,6-dione]
0.163 nM | CCN(CC)CCc1ccc(CSc2cccc3c2CN(C2CCC(=O)NC2=O)C3=O)cc1 (stereo not shown) [SIAIS1227097, 3-(4-((4-(2-(diethylamino)ethyl)benzyl)thio)-1-oxoisoindolin-2-yl)piperidine-2,6-dione]
